Tests used:
[1] = Toxicity in NMRI mouse back skin assessed as survival rate at 11.7 ug for 48 weeks measured after 24 weeks; type: organism-based, Zone of skin; settings: in vivo, topical or ocular, read-out: Activity
[2] = Toxicity in NMRI mouse assessed as survival rate at 3.1 ug for 48 weeks measured after 24 weeks; type: organism-based; settings: in vivo, read-out: Activity
Mus musculus [3] = species: Mus musculus; experiment: Carcinogenic activity in NMRI mouse assessed as number of tumors per mouse at 12.2 ug for 34 weeks measured after 12 weeks; type: ADME, organism-based; settings: in vivo, 2016 h
Mus musculus [4] = species: Mus musculus; experiment: Carcinogenic activity in NMRI mouse assessed as number of tumor bearing mouse at 12.2 ug for 34 weeks measured after 12 weeks; type: ADME, organism-based; settings: in vivo, 2016 h
[5] = Toxicity in NMRI mouse assessed as survival rate at 12.2 ug for 34 weeks measured after 24 weeks; type: organism-based; settings: in vivo, read-out: Activity
Mus musculus [6] = species: Mus musculus; experiment: Toxicity in NMRI mouse assessed as drug level required for irritant activity in 50% animal assessed per ear; type: organism-based; settings: in vivo

C=C(C)[C@]12C[C@@H](C)[C@@]34O[C@](/C=C/C=C/CCCCCCCCC)(O[C@@H]1[C@@H]3[C@@H]1O[C@]1(CO)[C@@H](O)[C@]1(O)C(=O)C(C)=C[C@H]14)O2 gave a survival at 4032 h [1] of 96% and a survival at 4032 h [2] of 96%.

In the case of CCCCCCCCC/C=C/C=C/C=C/C(=O)O[C@@]12C[C@@H](C)[C@@]3(O)[C@H]([C@@H]1C2(C)C)[C@@H]1O[C@]1(CO)[C@@H](O)[C@]1(O)C(=O)C(C)=C[C@H]13 [MANCINELLIN], the Activity (Mus musculus [3]) is reported as “Not Active”, the Activity (Mus musculus [4]) is reported as “Not Active” and the survival at 4032 h [5] is reported as 100%. The Activity (Mus musculus [6]) was 0.15 µg.

CCCCCCCCCCCCCC(=O)O[C@@H]1[C@@H](C)[C@@]2(O)[C@@H](C=C(CO)C[C@]3(O)C(=O)C(C)=C[C@@H]23)[C@@H]2C(C)(C)[C@]12OC(C)=O [TETRADECANOYL PHORBOL ACETATE] gave an Activity (Mus musculus [6]) of 0.01 µg and a survival at 4032 h [2] of 96%.

From ChEMBL document CHEMBL1148994, “On the active principles of the spurge family, X. Skin irritants, cocarcinogens, and cryptic cocarcinogens from the latex of the manchineel tree” (J Nat Prod, 1984)
